# Laboratory results taken from US11827665B2, “Process for the manufacture of (2S,3S,4S,5R,6S)-3,4,5-trihydroxy-6-(((4AR,10AR)-7-hydroxy-1-propyl-1,2,3,4,4A,5,10,10A-octahydrobenzo[g]quinolin-6-yl)oxy)tetrahydro-2H-pyran-2-carboxylic acid” (H. Lundbeck A/S, priority 2019, dated 2023).
# Assays:
# rat locomotor activity = experiment: Rat locomotor activity (hyperactivity) assay, open field, with PK/PD; format: in vivo, male CD rats; conditions: for Relationship between plasma concentration and hyperactivity: (Id) 100 μg/kg p.o. (plasma compound (I)), apomorphine 3 mg/kg s.c. (plasma apomorphine)
# Description: Animals were dosed at t=60 minutes after a 60-minutes habituation period in test chambers, and activity was monitored for 350 minutes thereafter.
# In total, 206 male CD rats (Charles River, Germany) weighing 200-250 grams (165-190 grams upon arrival) were used in the study. Animals were housed at a standard temperature (22±1° C.) and in a light-controlled environment (lights on from 7 am to […]) with ad libitum access to food and water. The experiment described below was performed in accordance with the standard operating procedures of Charles River Discovery Research Services Finland Ltd. and in accordance with the national Animal Experiment Board of Finland (Eläinkoelautakunta, ELLA) authority on animal testing.
# The test device is a square Plexiglass-arena (measuring 40×40×40 cm), in which the movement paths of the rats are recorded by an activity monitor (Med. Associates Inc.). Before the test period is initiated, rats are habituated to their test cage for 60 minutes. Upon completion of habituation, animals were treated with either compound or vehicle and placed back into the open field apparatus. The main test parameter measured is ambulatory distance (recorded in 5-minute segments). Overall time of measurement after receiving initial treatment was 360 minutes. Total follow up period in the study was 420 min, including 60 min of habituation.
# human 5-HT2B receptor [1] = target: T1, human 5-HT2B receptor (Homo sapiens, UniProt P41595); experiment: 5-HT2B agonist activity assay (IP1 production, HTRF); format: cell-based; conditions: for 5-HT2B receptor agonism (in words): example 6 and Table 2
# T1 construct: host or cells: CHO
# Description: Evaluation of the agonist activity of compounds (I), (Ia), (Ib), (Ic) and (Id) at the human 5-HT2B receptor was performed by Eurofins/Cerep (France) measuring the compound effects on inositol monophosphate (IP1) production using the HTRF detection method. Briefly, the human 5-HT2B receptor was expressed in transfected CHO cells. The cells were suspended in a buffer containing 10 mM Hepes/NaOH (pH 7.4), 4.2 mM KCl, 146 mM NaCl, 1 mM CaCl2, 0.5 mM MgCl2, 5.5 mM glucose and 50 mM LiCl, then distributed in microplates at a density of 4100 cells/well and incubated for 30 minutes at 37° C. in the presence of buffer (basal control), test compound or reference agonist. For stimulated control measurement, separate assay wells contained 1 μM 5-HT. Following incubation, the cells were lysed and the fluorescence acceptor (fluorophen D2-labeled IP1) and fluorescence donor (anti-IP1 antibody labeled with europium cryptate) were added. After 60 minutes at room temperature, the fluorescence transfer was measured at lambda (Ex) 337 nm and lambda (Em) 620 and 665 nm using a microplate reader (Rubystar, BMG). The IP1 concentration was determined by dividing the signal measured at 665 nm by that measured at 620 nm (ratio). The results were expressed as a percent of the control response to 1 μM 5-HT. The standard reference agonist was 5-HT, which was tested in each experiment at several concentrations to generate a concentration-response curve from which its EC50 value is calculated as described above for dopamine functional assays.
# [2] = PK experiments in rats: plasma compound (I) after oral dosing of prodrugs; format: in vivo, Han Wistar rats; conditions: Wistar rats, doses equal to 287 μg/kg of compound (I)
# Description: Plasma was placed on water-ice following collection. Final storage at approximately −70° C.
# Mobile phase B: Acetonitrile. […] Flow rate 0.5 mL/min.
# The rats had unrestricted access to the diet.
# Mobile phase B: Acetonitrile+0.2% formic acid. […] Flow rate 0.3 mL/min.
# Dosing and blood sampling for compound (Ic): Han Wistar rats were supplied by Envigo, UK. […] The rats received a standard laboratory diet Teklad 2014C. The rats had unrestricted access to the diet. […] Rats were given 494 μg/kg (Ic).
# [3] = test system: Parkinson's Disease animal models; conditions: WO 2010/097092; cited from earlier work
# human hepatocytes [4] = conditions: WO 2010/097092; cited from earlier work
# rat hepatocytes [5] = conditions: WO 2010/097092; cited from earlier work
# rat hepatocytes [6] = experiment: Incubation with rat hepatocytes; format: in vitro ADME
# Description: (§1) The cell concentration at incubation was 1×10^6 viable cells/mL. The incubations were performed in glass tubes at 37° C. with a total incubation volume of 3.5 mL and with duplicate incubations for each test item. The 3.5 mL of hepatocyte suspension was equilibrated for 10 minutes in a water bath set to 37° C. where after the incubations were initiated by adding 3.5 μL of a stock solution of the test item in DMSO (Dimethyl sulfoxide) and gently inverting the tubes. The final solvent concentration in the incubations was 0.1% DMSO. Samples of 600 μL were withdrawn from the incubations at the pre-determined time points of 0.25, 5, 15, 30 and 60 minutes after ensuring homogeneity of hepatocyte suspensions. The withdrawn volume was added to 1 mL Nunc cryotubes on wet ice containing 60 μL of ice-cold ascorbic acid (100 mg/mL) and 30 μL of ice cold 100 mM saccharic acid 1.4-lactone in 0.5 M citric acid. The tubes were mixed and 35 μL of a solution of ice cold 20% formic acid was added. The tubes were mixed thoroughly and stored at −80° C. awaiting analysis.
# [7] = In vivo conversion after oral dosing in minipigs
# [8] = Conversion in fresh rat blood; format: in vitro ADME; conditions: fresh blood 37° C., 1 μg/mL, 0-60 minutes
# Description: (§2) Conversion of (Id) in human blood (average of 3 donors) and rat blood (average of 45 donors) to (I) was shown in fresh blood at 37° C. spiked with 1 μg/mL of (Id). (I) was measured at 0, 5, 15, 30 and 60 minutes in isolated plasma. Analysis method and Instrumentation as described in Example 7 below in the section “Instrumentation used for analysis of compound (I) from dosing of compounds (Ic) and (Id).”
# human hepatocytes [9] = experiment: Incubation with human hepatocytes; format: in vitro ADME
# Description: as §1
# [10] = Conversion in fresh human blood; format: in vitro ADME; conditions: fresh blood 37° C., 1 μg/mL, 0-60 minutes
# Description: as §2
# human D1 receptor = target: T2, human D1 receptor (Homo sapiens, UniProt P21728); experiment: Dopamine D1 receptor agonism, HTRF cAMP assay; format: cell-based; conditions: example 5 and table 2 (D1 and D2 assays)
# T2 construct: host or cells: HEK-293
# Description: Dopamine D1 receptor agonism was measured using a HTRF cAMP from CisBio using the protocol developed by HD Biosciences (China). Briefly, the assay is a homogeneous time resolved-fluorescence resonance energy transfer (HTRF) assay that measures production of cAMP by cells in a competitive immunoassay between native cAMP produced by cells and cAMP-labeled with XL-665. A cryptate-labeled anti-cAMP antibody visualizes the tracer. The assay was performed in accordance with instructions from manufacturer.
# Test compounds were added to wells of microplates (384 format). […] HTRF cAMP was measured by excitation of the donor with 337 nm laser (the “TRF light unit”) and subsequent (delay time 100 microseconds) measurement of cryptate and d2 emission at 615 nm and 665 nm over a time window of 200 microseconds with a 2000 microseconds time window between repeats/100 flashes). HTRF measurements were performed on an Envision microplate reader (PerkinElmer). The HTRF signal was calculated as the emission-ratio at 665 nm over 615 nm. The HTRF ratio readout for test compounds was normalized to 0% and 100% stimulation using control wells with DMSO-solvent or 30 μM dopamine. […]
# human 5-HT2B receptor [11] = target: T1, human 5-HT2B receptor; experiment: 5-HT2B radioligand binding assay; conditions: [125I](±)DOI, CHO cell membranes, read-out: 5-HT2B binding affinity (% inhibition of control, specific binding)
# Description: Membrane homogenates prepared from CHO cells expressing the human 5HT2B receptor were incubated for 60 minutes at room temperature with 0.2 nM [1251](±)DOI (1-(4-iodo-2, 5-dimethoxyphenyl)propan-2-amine) in the absence or presence of the test compound in a buffer containing 50 mM Tris-HCl (pH 7.4), 5 mM MgCl2, 10 μM pargyline and 0.1% ascorbic acid. Nonspecific binding is determined in the presence of 1 μM (±)DOI. Following incubation, the samples were filtered rapidly under vacuum through glass fiber filters (GF/B, Packard) presoaked with 0.3% polyethyleneimine (PEI) and rinsed several times with ice-cold 50 mM Tris-HCl using a 96-sample cell harvester (Unifilter, Packard). The filters were dried and counted for radioactivity in a scintillation counter (Topcount, Packard) using a scintillation cocktail (Microscint 0, Packard). The results are expressed as a percent inhibition of the control radioligand specific binding. The standard reference compound was (±)DOI, which was tested in each experiment at several concentrations to obtain a competition curve from which its IC50 is calculated.
# [12] = man, oral dosing; cited from earlier work
# Parkinson's disease = conditions: PD patients, intravenous (IV); cited from earlier work
# [13] = (Id) 10 to 300 μg/kg p.o., apomorphine 3 mg/kg s.c., pramipexole 0.3 mg/kg s.c.
# [14] = 1 μg/mL, 37° C., 0.25-60 minutes
# T1 sequence (P41595 whole entry): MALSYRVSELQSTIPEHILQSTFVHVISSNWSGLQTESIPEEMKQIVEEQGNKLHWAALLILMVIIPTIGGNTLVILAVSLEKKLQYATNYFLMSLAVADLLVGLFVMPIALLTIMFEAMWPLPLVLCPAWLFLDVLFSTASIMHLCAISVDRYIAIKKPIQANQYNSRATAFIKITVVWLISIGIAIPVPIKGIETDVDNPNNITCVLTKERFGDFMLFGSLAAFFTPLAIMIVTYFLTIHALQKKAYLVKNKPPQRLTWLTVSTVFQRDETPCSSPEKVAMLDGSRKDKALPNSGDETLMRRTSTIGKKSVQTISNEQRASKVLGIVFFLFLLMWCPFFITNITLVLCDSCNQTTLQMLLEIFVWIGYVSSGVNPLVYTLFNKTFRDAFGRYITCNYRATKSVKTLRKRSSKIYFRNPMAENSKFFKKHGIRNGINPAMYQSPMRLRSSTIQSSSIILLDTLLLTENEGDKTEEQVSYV
# T2 sequence (P21728 whole entry): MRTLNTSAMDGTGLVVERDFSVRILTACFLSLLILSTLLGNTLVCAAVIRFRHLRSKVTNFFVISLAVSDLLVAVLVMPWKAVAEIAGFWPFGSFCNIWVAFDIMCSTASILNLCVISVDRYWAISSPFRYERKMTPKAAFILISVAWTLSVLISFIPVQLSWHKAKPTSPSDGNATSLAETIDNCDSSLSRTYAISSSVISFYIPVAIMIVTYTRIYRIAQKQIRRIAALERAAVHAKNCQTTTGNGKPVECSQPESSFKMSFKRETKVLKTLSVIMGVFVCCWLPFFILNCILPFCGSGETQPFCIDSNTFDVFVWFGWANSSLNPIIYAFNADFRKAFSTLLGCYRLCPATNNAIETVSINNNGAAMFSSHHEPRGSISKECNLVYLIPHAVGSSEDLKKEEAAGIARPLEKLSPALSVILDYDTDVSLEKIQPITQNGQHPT
structure (smiles),measurement,setting,value
CN1CCc2cccc3c2[C@H]1Cc1ccc(O)c(O)c1-3 [apomorphine],Relationship between plasma concentration and hyperactivity,rat locomotor activity,correlation between plasma concentrations of apomorphine and hyperactive behaviour
same,Locomotor activity: start of effect post-administration,rat locomotor activity; [13],immediate
CCCN1CCC[C@@H]2CC3=C(CCCC3=O)C[C@H]21 [compound (Ia)],5-HT2B agonist effect @ 30 μM,"human 5-HT2B receptor [1]; 30 μM, percent of control response to 1 μM 5-HT",58%
same,Plasma profile of compound (I) after oral dosing of the prodrug (in words),[2],early and high peak concentrations of compound (I)
same,Efficacy in animal models relevant for Parkinson's Disease,[3],effective
CCCN1CCC[C@@H]2Cc3c(ccc4c3OCO4)C[C@H]21 [compound (Ib)],5-HT2B receptor agonism (in words),human 5-HT2B receptor [1],agonist of the 5-HT2B receptor
same,Conversion of (Ib) to compound (I) in human hepatocytes,human hepatocytes [4],demonstrated
same,Plasma profile of compound (I) after oral dosing of the prodrug (in words),[2],early and high peak concentrations of compound (I)
same,Conversion of (Ib) to compound (I) in rat hepatocytes,rat hepatocytes [5],demonstrated
same,Efficacy in animal models relevant for Parkinson's Disease,[3],effective
CCCN1CCC[C@@H]2Cc3c(ccc(OC(=O)C(C)(C)C)c3OC(=O)C(C)(C)C)C[C@H]21 [compound (Ic)],5-HT2B agonist effect @ 10 μM,"human 5-HT2B receptor [1]; 10 μM, percent of control response to 1 μM 5-HT",−5% @ 10 μM
same,Plasma profile of compound (I) after oral dosing of the prodrug (in words),[2],extremely low
"CCCN1CCC[C@@H]2Cc3c(ccc(O)c3O[C@@H]3O[C@H](C(=O)O)[C@@H](O)[C@H](O)[C@H]3O)C[C@H]21 [compound (Id), (2S,3S,4S,5R,6S)-3,4,5-trihydroxy-6-(((4aR,10aR)-7-hydroxy-1-propyl-1,2,3,4,4a,5,10,10a-octahydrobenzo[g]quinolin-6-yl)oxy)tetrahydro-2H-pyran-2-carboxylic acid]",Conversion of (Id) to compound (I) in rat hepatocytes,rat hepatocytes [6]; [14],time dependent conversion
same,In vivo conversion of (Id) to compound (I),[7],observed
same,Conversion of (Id) to compound (I) in rat blood,[8],time dependent conversion
same,Conversion of (Id) to compound (I) in human hepatocytes,human hepatocytes [9]; [14],time dependent conversion
same,5-HT2B receptor agonism (in words),human 5-HT2B receptor [1],not a 5-HT2B agonists
same,Conversion of (Id) to compound (I) in human blood,[10],time dependent conversion
same,In vitro dopaminergic activity (in words),human D1 receptor,no in vitro dopaminergic activity
same,inhibition at 10 µM,human 5-HT2B receptor [11],-25%
same,Relationship between plasma concentration and hyperactivity,rat locomotor activity,correlate with the plasma concentrations of compound (I)
same,Locomotor activity: start of effect post-administration,rat locomotor activity; [13],~2 h
same,Locomotor activity: end of effect post administration,"rat locomotor activity; (Id) 10 to 300 μg/kg p.o., apomorphine 3 mg/kg s.c., recording until 415-minute time point",lasting until the end of recording
same,Total distance travelled (FIG. 3),"rat locomotor activity; versus vehicle, (Id) p.o., apomorphine 3 mg/kg s.c., pramipexole 0.3 mg/kg s.c.",significantly increased activity
same,Plasma profile of compound (I) after oral dosing of the prodrug (in words),[2],slower absorption rate avoiding rapid peak concentrations
CCCc1cc2c(s1)CN[C@@H]1CCc3cc(OC(C)=O)c(OC(C)=O)cc3[C@@H]21 [adrogolide],Oral bioavailability,[12],~4%
same,Antiparkinson efficacy,Parkinson's disease,comparable to that of L-DOPA
"CCCN1CCC[C@@H]2Cc3c(ccc(O)c3O)C[C@H]21 [compound (I), (4aR,10aR)-1-Propyl-1,2,3,4,4a,5,10,10a-octahydro-benzo[g]quinoline-6,7-diol]",Conjugation of compound (I) in rat hepatocytes,rat hepatocytes [6],conjugated in rat and human hepatocytes to sulfate and glucuronide derivatives
same,Conjugation of compound (I) in human hepatocytes,human hepatocytes [9],conjugated in rat and human hepatocytes to sulfate and glucuronide derivatives
same,Efficacy in animal models relevant for Parkinson's Disease,[3],effective
